Assay results reported in patent US8592468B2, “Bacterial thioredoxin reductase inhibitors and methods for use thereof” (Thioredoxin Systems AB, priority 2006, dated 2013).
Values after ≈ are worked out from the molar mass of the structure shown. Like-named read-outs stand apart in the source and are kept apart here.

Tests used:
E. coli Trx-(SH)2 = E. coli Trx-(SH)2 (Escherichia coli (strain K12), UniProt P0AA25); conditions: fluorescence spectroscopy; cited from earlier work
E. coli TrxR = E. coli TrxR (Escherichia coli (strain K12), UniProt P0A9P4); assay type: biochemical
E. coli TrxR, sequence (P0A9P4 2-321 limits assumed): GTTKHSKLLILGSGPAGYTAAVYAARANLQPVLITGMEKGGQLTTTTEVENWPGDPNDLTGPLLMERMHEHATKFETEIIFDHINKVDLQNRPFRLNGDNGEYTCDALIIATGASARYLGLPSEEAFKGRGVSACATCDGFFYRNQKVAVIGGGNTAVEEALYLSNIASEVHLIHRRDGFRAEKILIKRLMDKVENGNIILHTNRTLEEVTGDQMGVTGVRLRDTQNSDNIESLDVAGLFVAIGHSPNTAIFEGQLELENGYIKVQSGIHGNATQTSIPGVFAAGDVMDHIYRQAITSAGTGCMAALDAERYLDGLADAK
Description: In FIG. 6A, 10 μM of ebselen (▴) and 10 μM of PZ25 (▪) were used as substrate of 25 nM calf thymus TrxR. In FIG. 6B, 10 μM of PZ25 was used as substrate for 10 nM calf thymus TrxR (◯) and 10 nM of E. coli TrxR (●). Reactions were started by adding enzymes in cuvettes containing 500 μl TE buffer with 100 μM NADPH, of which the consumption were followed by the changes of the absorption at 340 nm against identical blank without enzymes.
Reactions were started by adding enzymes to cuvettes containing 500 μl TE buffer with 100 μM NADPH and 16 μM compounds. The NADPH consumption was followed by the changes of the absorption at 340 nm against identical blank without enzymes.
The activity of the enzyme was determined at room temperature using an Ultrospec 3000 UV/Visual spectrophotometer (Amersham Biosciences). […] The enzyme-catalysed reactions were followed at 340 nm using the standard calculation of NADPH oxidation to NADP^+ with a molar extinction coefficient of 6200 M^−1 cm^−1 (32, 34). The conditions of the assay of bacterial thioredoxin reductase have been described (32, 34) using either 1 mM DTNB or 160 μM insulin as a substrate. In DTNB coupled assays, 240 μM NADPH and 1 mM DTNB were used in the TE buffer and formation of the TNB was measured at 412 nm, where TNB has an extinction coefficient of 13600 M^−1 cm^−1.
Further we examined the effect of ebselen in the reduction of disulphide by E. coli Trx and TrxR using both DTNB and insulin as substrates. […] FIGS. 4A and 4B show the effect of ebselen (4A) and ebselen diselenide (4B) on DTNB reduction by E. coli thioredoxin and thioredoxin reductase. Assays in semi-microcuvettes with 0.5 ml solution contained 0.24 mM NADPH, 1 mM DTNB in 50 mM Tris-Cl/1 mM EDTA, pH 7.5 buffer. (A) In the presence of 2 μM (grey filled points), 5 μM (white filled points) and 10 μM (black filled points) of E. coli Trx and 7.6 nM of E. coli TrxR with ebselen at concentrations of zero (squares), 0.5 μM (triangles), 1 μM (rhombus), and 2 μM (rounds), the increase in A412 was measured against a blank. (B) In the presence of 2 μM (grey filled points), 5 μM (white filled points) and 10 μM (black filled points) of E. coli Trx and 10 nM of E. coli TrxR, with ebselen diselenide at concentrations of zero (squares), 1 μM (triangles) and 2 μM (rounds), the increase in A412 was measured against a blank.

Staphylococcus aureus = conditions: cited from earlier work
Helicobacter pylori = experiment: Bactericidal effects of ebselen on Helicobacter pylori (MBC); assay type: cell-based; set-up: key to Sensitivity to ebselen: S: sensitive; R: resistant
Description: The bacteria were cultured in 96-well microtiter plates with a microaerophilic environment at 37° C. for 4 days. The whole amount of the wells was then plated on GC agar plates containing different concentrations of ebselen. Ebselen was diluted in a two-fold series (0.39-200 μg/ml), the minimal bactericidal concentration (MBC) was determined by the first concentration with a total bactericidal effect.

E. coli DHB4 strains = experiment: Sensitivity of growth of E. coli DHB4 strains to ebselen (A600); assay type: cell-based
Description: Bacterial cells were grown in 5 mL cultures at 37° C., 120 rpm in 15 mL closed tubes containing Lutria-Bertani (LB) or M9 minimal media supplemented with 50 μg/ml Leu, Ile, 1× basal medium Eagle's vitamin solution (Invitrogen) and 2 μg/mL nicotinic acid. For the experiments regarding sensitivity of growth to ebselen, cells were initially grown overnight at 37° C. at the respective medium. The next day, equal cell numbers (as determined by A600) with dilutions of at least 1:50 were used to start 5 mL cultures containing different concentrations of Ebselen. Ebselen stock solutions were freshly prepared in DMSO. Extra DMSO was added to the cultures so that the total volumes of DMSO were the same per culture even at different final concentrations of Ebselen. Growth inhibition assays were carried out also on M9 minimal plates. The plates were covered with minimal top agar that contained equal cell number for all the strains examined. These were derived from overnight liquid cultures in M9 medium.
Sensitivity to ebselen was measured by inhibition of growth as determined by scattering (absorbance) at 600 nm at different times after inoculation.

Mammalian TrxR = conditions: from reference; cited from earlier work
[1] = biological target: E. coli ribonucleotide reductase (Escherichia coli (strain K12), UniProt P00452+P69924); experiment: Inhibition of E. coli ribonucleotide reductase (data not shown); assay type: biochemical
E. coli ribonucleotide reductase, sequence (P00452 whole entry, looked up): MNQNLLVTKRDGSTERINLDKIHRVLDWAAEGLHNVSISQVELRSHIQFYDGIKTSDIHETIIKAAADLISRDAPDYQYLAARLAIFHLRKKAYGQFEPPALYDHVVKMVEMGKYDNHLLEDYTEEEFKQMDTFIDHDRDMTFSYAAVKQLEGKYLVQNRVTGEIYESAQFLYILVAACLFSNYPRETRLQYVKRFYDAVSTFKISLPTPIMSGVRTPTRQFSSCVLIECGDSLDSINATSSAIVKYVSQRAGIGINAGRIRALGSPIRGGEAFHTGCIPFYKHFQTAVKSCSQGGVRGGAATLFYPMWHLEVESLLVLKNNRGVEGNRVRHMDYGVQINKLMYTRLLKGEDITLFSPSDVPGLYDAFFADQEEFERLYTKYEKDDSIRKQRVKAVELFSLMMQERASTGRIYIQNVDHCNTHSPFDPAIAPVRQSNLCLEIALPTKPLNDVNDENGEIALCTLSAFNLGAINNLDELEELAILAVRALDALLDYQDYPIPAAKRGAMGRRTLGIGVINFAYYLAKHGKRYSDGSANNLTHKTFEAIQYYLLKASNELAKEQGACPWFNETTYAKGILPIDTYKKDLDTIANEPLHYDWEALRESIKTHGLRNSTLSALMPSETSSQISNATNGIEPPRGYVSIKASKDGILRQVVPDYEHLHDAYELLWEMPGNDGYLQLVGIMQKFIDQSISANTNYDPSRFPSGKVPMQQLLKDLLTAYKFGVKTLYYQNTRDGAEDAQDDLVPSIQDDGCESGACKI
E. coli ribonucleotide reductase, sequence (P69924 whole entry, looked up): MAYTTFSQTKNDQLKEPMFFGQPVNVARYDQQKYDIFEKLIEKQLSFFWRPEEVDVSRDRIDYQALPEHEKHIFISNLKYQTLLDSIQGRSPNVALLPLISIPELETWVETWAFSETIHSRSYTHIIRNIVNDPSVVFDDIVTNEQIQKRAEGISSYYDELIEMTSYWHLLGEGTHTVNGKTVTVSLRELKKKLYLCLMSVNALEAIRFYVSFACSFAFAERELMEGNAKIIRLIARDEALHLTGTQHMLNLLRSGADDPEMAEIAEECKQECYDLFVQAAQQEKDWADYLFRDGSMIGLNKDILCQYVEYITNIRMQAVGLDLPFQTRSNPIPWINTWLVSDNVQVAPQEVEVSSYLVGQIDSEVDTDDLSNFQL

[2] = test system: mammalian thioredoxin reductases; experiment: Inhibition of mammalian thioredoxin reductases; assay type: biochemical

O=c1c2ccccc2[se]n1-c1ccccc1 [EbSe 6, 2-phenyl-1,2-benzisoselenazol-3(2H)-one]
second-order rate constant of reaction with reduced E. coli Trx (E. coli Trx-(SH)2): 2e+07 M⁻¹ s⁻¹
oxidation of NADPH when directly added to E. coli TrxR and NADPH (E. coli TrxR): no oxidations of NADPH
mode of antibacterial action (Staphylococcus aureus; S. aureus strains): bacteriocidal
concentration inhibiting growth (Staphylococcus aureus; Staphylococcus aureus 209P): 0.20 µg/mL
MIC for 90% of S. aureus strains (Staphylococcus aureus): 1.56 μg per ml
sensitivity of S. aureus relative to E. coli (Staphylococcus aureus): 100 fold
concentration inhibiting growth (Staphylococcus aureus; methicillin resistant Staphylococcus aureus): 0.20 μg per ml
Sensitivity to ebselen (Helicobacter pylori; strain MR G162, ebselen 0.78 μg/ml): R
Sensitivity to ebselen (Helicobacter pylori; strain MR G162, ebselen 1.56 μg/ml): R
Sensitivity to ebselen (Helicobacter pylori; strain MR G162, ebselen 3.125 μg/ml): R
Sensitivity to ebselen (Helicobacter pylori; strain MR G162, ebselen 6.25 μg/ml): R
Sensitivity to ebselen (Helicobacter pylori; strain MR G162, ebselen 25 μg/ml): S
Sensitivity to ebselen (Helicobacter pylori; strain MR G162, ebselen 50 μg/ml): S
Sensitivity to ebselen (Helicobacter pylori; strain MR G162, ebselen 100 μg/ml): S
Sensitivity to ebselen (Helicobacter pylori; strain MR G193, ebselen 0.78 μg/ml): R
Sensitivity to ebselen (Helicobacter pylori; strain MR G193, ebselen 1.56 μg/ml): R
Sensitivity to ebselen (Helicobacter pylori; strain MR G193, ebselen 3.125 μg/ml): R
Sensitivity to ebselen (Helicobacter pylori; strain MR G193, ebselen 6.25 μg/ml): R
Sensitivity to ebselen (Helicobacter pylori; strain MR G193, ebselen 25 μg/ml): S
Sensitivity to ebselen (Helicobacter pylori; strain MR G193, ebselen 50 μg/ml): S
Sensitivity to ebselen (Helicobacter pylori; strain MR G193, ebselen 100 μg/ml): S
Sensitivity to ebselen (Helicobacter pylori; strain MS G6, ebselen 0.78 μg/ml): R
Sensitivity to ebselen (Helicobacter pylori; strain MS G6, ebselen 1.56 μg/ml): R
Sensitivity to ebselen (Helicobacter pylori; strain MS G6, ebselen 3.125 μg/ml): S
Sensitivity to ebselen (Helicobacter pylori; strain MS G6, ebselen 6.25 μg/ml): S
Sensitivity to ebselen (Helicobacter pylori; strain MS G6, ebselen 25 μg/ml): S
Sensitivity to ebselen (Helicobacter pylori; strain MS G6, ebselen 50 μg/ml): S
Sensitivity to ebselen (Helicobacter pylori; strain MS G6, ebselen 100 μg/ml): S
Sensitivity to ebselen (Helicobacter pylori; strain MS G142, ebselen 0.78 μg/ml): R
Sensitivity to ebselen (Helicobacter pylori; strain MS G142, ebselen 1.56 μg/ml): R
Sensitivity to ebselen (Helicobacter pylori; strain MS G142, ebselen 3.125 μg/ml): R
Sensitivity to ebselen (Helicobacter pylori; strain MS G142, ebselen 6.25 μg/ml): S
Sensitivity to ebselen (Helicobacter pylori; strain MS G142, ebselen 25 μg/ml): S
Sensitivity to ebselen (Helicobacter pylori; strain MS G142, ebselen 50 μg/ml): S
Sensitivity to ebselen (Helicobacter pylori; strain MS G142, ebselen 100 μg/ml): S
minimal bactericidal concentration (MBC) (Helicobacter pylori; two macrolide sensitive strains, listed as ebselen): 6.25 µg/mL (≈ 22.8 µM)
wild type bacteria compared with gor^− and gshA^− strains (E. coli DHB4 strains): more resistant
sensitivity of gshA^−trxA^− strain (E. coli DHB4 strains; LB medium): more sensitive
sensitivity of strain trxA^−C^− compared with wild type (E. coli DHB4 strains; LB medium): similar, if not less
growth of gor^− and gshA^− strains in presence of ebselen (E. coli DHB4 strains; minimal media (M9)): hardly grew
Km (Mammalian TrxR): 2.5 µM
kcat (Mammalian TrxR): 9.8 s⁻¹
kcat/KM (Mammalian TrxR): 3.92e+06 M⁻¹ s⁻¹
inhibition of E. coli ribonucleotide reductase [1]: effective direct inhibitor
inhibitory activity of mammalian thioredoxin reductases [2]: no inhibitory activity
